Test results: the SangsterLogP compilation

Assay: method code SF-HPLC, from DOI: 10.1016/0378-5173(94)00315-v
Details: pH 1.0

Q: For `COc1ccc2cc(CC(=O)O)ccc2c1`, which logD is on record?
A: The logD was 2.82.

Same assay, conditions: pH 7.4

Q: Which logD does the source give for `COc1ccc2cc(CC(=O)OCC(=O)NC(C)(C)C)ccc2c1` here?
A: The logD was 3.6.

Q: Which logD does the source give for `CCCCNC(=O)COC(=O)Cc1ccc2cc(OC)ccc2c1` here?
A: Its logD is 3.57.

Q: With `CNC(=O)COC(=O)Cc1ccc2cc(OC)ccc2c1` as the compound, how does the logD read?
A: Its logD is 2.19.

Q: For `CCNC(=O)COC(=O)Cc1ccc2cc(OC)ccc2c1`, which logD is on record?
A: Its logD is 2.65.

Q: Which logD does the source give for `COc1ccc2cc(CC(=O)OCC(=O)N(C)C)ccc2c1` here?
A: Its logD is 2.23.

Q: For `CCN(CCO)C(=O)COC(=O)Cc1ccc2cc(OC)ccc2c1`, which logD is on record?
A: Its logD is 1.98.

Q: For `CCCNC(=O)COC(=O)Cc1ccc2cc(OC)ccc2c1`, which logD is on record?
A: The logD was 3.1.

Q: With `COc1ccc2cc(CC(=O)OCC(=O)N(CCO)CCO)ccc2c1` as the compound, how does the logD read?
A: Its logD is 1.41.

Q: For `COc1ccc2cc(CC(=O)OCC(=O)NC(C)C)ccc2c1`, which logD is on record?
A: Its logD is 2.89.

Q: With `C=CCN(CC=C)C(=O)COC(=O)Cc1ccc2cc(OC)ccc2c1` as the compound, how does the logD read?
A: The logD was 3.67.

Q: With `COc1ccc2cc(CC(=O)OCC(=O)N(C)CCO)ccc2c1` as the compound, how does the logD read?
A: Its logD is 1.58.

Q: For `COc1ccc2cc(CC(=O)OCC(=O)NC3CCCCC3)ccc2c1`, which logD is on record?
A: The logD was 3.99.

Q: For `CCC(C)NC(=O)COC(=O)Cc1ccc2cc(OC)ccc2c1` (centres undefined), which logD is on record?
A: The logD was 3.31.

Q: With `COc1ccc2cc(CC(=O)OCC(N)=O)ccc2c1` as the compound, how does the logD read?
A: Its logD is 1.88.

Q: Which logD does the source give for `CCN(CC)C(=O)COC(=O)Cc1ccc2cc(OC)ccc2c1` here?
A: The logD was 3.05.

Q: Which logD does the source give for `CCCN(CCC)C(=O)COC(=O)Cc1ccc2cc(OC)ccc2c1` here?
A: The logD was 4.04.

Q: With `COc1ccc2cc(CC(=O)OCC(=O)N3CCCC3)ccc2c1` as the compound, how does the logD read?
A: The logD was 2.71.

Q: With `COc1ccc2cc(CC(=O)OCC(=O)N3CCOCC3)ccc2c1` as the compound, how does the logD read?
A: The logD was 2.13.
